Tests used:
human H1 receptor [1] = target: T1, human H1 receptor (Homo sapiens, UniProt P35367); assay: Histamine H1 functional antagonist assay: determination of functional pKi values (FLIPR); format: cell-based; conditions: CHO cells expressing human H1 receptor, histamine at EC80, read-out: average pKi (pKb) at H1 (converted)
T1 construct: expressed in transfected cells
How it was run: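 CHO cells stably expressing human H1 receptor, loaded with Fluo-4 for 60 min, then preincubated with compound 30 min at 37° C in Tyrodes buffer with probenecid, pH 7.40. Histamine added at EC80; suppression of calcium fluorescence on FLIPR gives functional affinity from concentration-effect curves.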

human H1 receptor [2] = target: T1, human H1 receptor; assay: Histamine H1 functional antagonist assay: determination of antagonist pA2 (FLIPR); format: cell-based; conditions: histamine H1 receptor expressing CHO cells, histamine concentration response curves
Protocol: The human H1 receptor is cloned using known procedures described in the literature [Biochem. Biophys. Res. Commun., 201(2):894 (1994)]. Chinese hamster ovary (CHO) cells stably expressing the human H1 receptor are generated according to known procedures described in the literature [Br. J. Pharmacol., 117(6):1071 (1996)].
The histamine H1 receptor expressing CHO cells are seeded into non-coated black-walled clear bottom 96-well tissue culture plates as described above.
Following overnight culture, growth medium is removed from each well, washed with 200 μl PBS and is replaced with 50 μl loading dye (250 μM Brilliant Black, 1 μM Fluo-4 diluted in Tyrodes buffer+probenecid (145 mM NaCl, 2.5 mM KCl, 10 mM HEPES, 10 mM D-glucose, 1.2 mM MgCl2, 1.5 mM CaCl2, 2.5 mM probenecid, pH adjusted to 7.40 with NaOH 1.0 M)). Cells are incubated for 45 min at 37° C. The loading buffer is removed and the cells are washed as above, and 90 μl of Tyrodes buffer+probenecid is added to each well. 10 μl of test compound, diluted to the required concentration in Tyrodes buffer+probenecid (or 10 μl Tyrodes buffer+probenecid as a control) is added to each well and the plate is incubated for 30 min at 37° C., 5% CO2.
The plates are then placed into a FLIPR™ (Molecular Devices, UK) to monitor cell fluorescence (λex=488 nm, λEM=540 nm) in the manner described in Sullivan et al., (In: Lambert DG (ed.), Calcium Signaling Protocols, New Jersey: Humana Press, 1999, 125-136) before and after the addition of 50 μl histamine over a concentration range of 1 mM-0.1 nM. The resultant concentration response curves are analysed by non-linear regression using a standard four parameter logistic equation to determine the histamine EC50, the concentration of histamine required to produce a response of 50% of the maximum response to histamine. The antagonist pA2 is calculated using the following standard equation: pA2=[…] where DR=dose ratio, defined as EC50antagonist-treated/EC50control and [B]=concentration of antagonist.

histamine H3 receptor = target: T2, histamine H3 receptor (Homo sapiens, UniProt Q9Y5N1); assay: Histamine H3 functional antagonist assay (GTPγS, membranes); format: biochemical; conditions: CHO K1 membranes, [35S]-GTPγS, histamine at EC80; read-out: average pKi (pKb) at H3 (converted)
T2 construct: expressed in transfected cells; host or cells: CHO K1 cells with pSwitch/pGeneH3 (GeneSwitch, mifepristone-induced), clone 3H3; membrane preparation
T2 sequence (Q9Y5N1 whole entry, species assumed): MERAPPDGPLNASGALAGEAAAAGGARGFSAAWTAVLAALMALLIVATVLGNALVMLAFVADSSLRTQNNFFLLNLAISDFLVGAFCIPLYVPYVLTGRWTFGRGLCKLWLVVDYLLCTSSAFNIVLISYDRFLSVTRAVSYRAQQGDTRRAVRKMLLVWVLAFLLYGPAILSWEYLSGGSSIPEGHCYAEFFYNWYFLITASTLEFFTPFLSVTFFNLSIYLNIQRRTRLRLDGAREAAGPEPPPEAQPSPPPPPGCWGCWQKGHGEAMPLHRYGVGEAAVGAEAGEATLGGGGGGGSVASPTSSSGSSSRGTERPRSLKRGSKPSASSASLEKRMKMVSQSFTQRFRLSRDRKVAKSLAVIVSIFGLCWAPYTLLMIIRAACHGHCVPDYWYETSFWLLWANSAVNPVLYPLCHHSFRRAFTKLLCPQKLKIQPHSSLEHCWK
How it was run: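 Membranes came from CHO K1 cells with mifepristone-inducible (10 nM, 18 h) human H3 receptor expression, clone 3H3. Test compounds in DMSO were combined with WGA polystyrene LeadSeeker SPA beads, membranes and GDP.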

T1 sequence (P35367 whole entry): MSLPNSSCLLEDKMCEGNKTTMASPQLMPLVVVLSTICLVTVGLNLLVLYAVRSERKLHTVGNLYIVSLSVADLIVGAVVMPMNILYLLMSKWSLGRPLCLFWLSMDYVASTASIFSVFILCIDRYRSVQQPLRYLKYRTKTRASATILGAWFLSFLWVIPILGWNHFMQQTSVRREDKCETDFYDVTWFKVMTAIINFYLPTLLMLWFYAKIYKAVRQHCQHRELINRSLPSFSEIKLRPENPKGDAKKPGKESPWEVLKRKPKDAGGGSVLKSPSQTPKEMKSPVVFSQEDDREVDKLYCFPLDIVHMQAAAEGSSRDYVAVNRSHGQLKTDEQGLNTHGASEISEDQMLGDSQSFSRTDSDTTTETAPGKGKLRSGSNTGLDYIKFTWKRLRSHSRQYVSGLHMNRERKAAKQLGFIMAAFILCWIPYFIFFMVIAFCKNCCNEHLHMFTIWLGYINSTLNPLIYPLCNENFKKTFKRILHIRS

SMILES | Ki (human H1 receptor [1]) [nM] | Kb (human H1 receptor [2]) [nM] | Ki (histamine H3 receptor) [nM]
CCCCc1cc(O[C@H]2CCN(CCC(=O)N3CCCCC3)C2)c2ncccc2c1 [Example 38, 6-butyl-8-({(3S)-1-[3-oxo-3-(1-piperidinyl)propyl]-3-pyrrolidinyl}oxy)quinoline] | ~1000 | < 100 | ~100
CCCCc1cc(O[C@H]2CCN(CCC(=O)N(CC)CC)C2)c2ncccc2c1 [Example 40, 3-{(3S)-3-[(6-butyl-8-quinolinyl)oxy]-1-pyrrolidinyl}-N,N-diethylpropanamide] | ~1000 | < 100 | > 316
CCCCc1cc(O[C@H]2CCN(CCCC(=O)NC(C)(C)C)C2)c2ncccc2c1 [Example 41, 4-{(3S)-3-[(6-butyl-8-quinolinyl)oxy]-1-pyrrolidinyl}-N-(1,1-dimethylethyl) butanamide] | < 100 | < 100 | > 316
CCCCc1cc(OC2CCN(CC(=O)NCCC)CC2)c2ncccc2c1 [Example 10, 2-{4-[(6-butyl-8-quinolinyl)oxy]-1-piperidinyl}-N-propylacetamide] | > 1000 |  | > 316
CCCCc1cc(OC2CCN(CCCCNC(=O)CCOC)CC2)c2ncccc2c1 [Example 85, N-(4-{4-[(6-butyl-8-quinolinyl)oxy]-1-piperidinyl}butyl)-3-(methyloxy) propanamide] | < 10 |  | > 316
CCCCc1cc(OC2CCN(CCC(=O)N(CC)CC)CC2)c2ncccc2c1 [Example 7, 3-{4-[(6-Butyl-8-quinolinyl)oxy]-1-piperidinyl}-N,N-diethylpropanamide] | < 10 |  | > 316
CCCCc1cc(OC2CCN(CCCCC(=O)NCCOC)CC2)c2ncccc2c1 [Example 29, 5-{4-[(6-butyl-8-quinolinyl)oxy]-1-piperidinyl}-N-[2-(methyloxy)ethyl] pentanamide] | < 100 |  | > 3160
CCCCc1cc(OC2CCN(CCCC(=O)NCCC)CC2)c2ncccc2c1 [Example 22, 4-{4-[(6-butyl-8-quinolinyl)oxy]-1-piperidinyl}-N-propylbutanamide] | < 10 |  | > 3160
CCCCc1cc(OC2CCN(CCCCC(=O)NCCC)CC2)c2ncccc2c1 [Example 28, 5-{4-[(6-butyl-8-quinolinyl)oxy]-1-piperidinyl}-N-propylpentanamide] | < 10 |  | > 3160
CCCCc1cc(OC2CCN(CCCc3nc(CCC)no3)CC2)c2ncccc2c1 [Example 87, 6-Butyl-8-({1-[3-(3-propyl-1,2,4-oxadiazol-5-yl)propyl]-4-piperidinyl}oxy)quinoline] | < 10 |  | > 316
CCCCc1cc(OC2CCN(CCC3CCN(C(=O)CC)CC3)CC2)c2ncccc2c1 [Example 4, 6-Butyl-8-({1-[2-(1-propanoyl-4-piperidinyl)ethyl]-4-piperidinyl}oxy)quinoline] | < 100 |  | > 316
CCCCc1cc(OC2CCN(CC3CCN(C(C)=O)CC3)CC2)c2ncccc2c1 [Example 1, 8-({1-[(1-Acetyl-4-piperidinyl)methyl]-4-piperidinyl}oxy)-6-butylquinoline] | < 100 |  | > 316
CCCCc1cc(O[C@@H]2CCN(CCCC(=O)NC(C)(C)C)C2)c2ncccc2c1 [Example 37, 4-{(3R)-3-[(6-butyl-8-quinolinyl)oxy]-1-pyrrolidinyl}-N-(1,1-dimethylethyl) butanamide] | < 10 |  | > 316
CCCCc1cc(OC2CCN(CC(=O)N(CC)CC)CC2)c2ncccc2c1 [Example 9, 2-{4-[(6-butyl-8-quinolinyl)oxy]-1-piperidinyl}-N,N-diethylacetamide] | < 100 |  | > 3160
CCCCc1cc(OC2CCN(CCC(=O)NC(C)C)CC2)c2ncccc2c1 [Example 19, 3-{4-[(6-butyl-8-quinolinyl)oxy]-1-piperidinyl}-N-(1-methylethyl) propanamide] | < 10 |  | > 3160
CCCCCCc1cc(OC2CCN(C[C@H]3CC[C@H](C(=O)NCCC)CC3)CC2)c2ncccc2c1 [Example 55, trans-4-({4-[(6-hexyl-8-quinolinyl)oxy]-1-piperidinyl}methyl)-N-propylcyclohexane carboxamide] | < 100 |  | > 316
CCCCCCc1cc(OC2CCN(C[C@H]3CC[C@H](C(=O)N4CCCCC4)CC3)CC2)c2ncccc2c1 [Example 51, 6-hexyl-8-[(1-{[trans-4-(1-piperidinylcarbonyl)cyclohexyl]methyl}-4-piperidinyl)oxy]quinoline] | < 100 |  | > 316
CCCCc1cc(OC2CCN(CCCCCNC(=O)CC)CC2)c2ncccc2c1 [Example 77, N-(5-{4-[(6-butyl-8-quinolinyl)oxy]-1-piperidinyl}pentyl) propanamide] | < 10 |  | > 316
CCCCc1cc(O[C@@H]2CCN(CCC(=O)NC(C)(C)C)C2)c2ncccc2c1 [Example 36, 3-{(3R)-3-[(6-butyl-8-quinolinyl)oxy]-1-pyrrolidinyl}-N-(1,1-dimethylethyl) propanamide] | < 10 |  | > 316
CCCCc1cc(OC2CCN(CCCCCNC(=O)C(C)(C)C)CC2)c2ncccc2c1 [Example 76, N-(5-{4-[(6-butyl-8-quinolinyl)oxy]-1-piperidinyl}pentyl)-2,2-dimethyl propanamide] | < 10 |  | > 316
CCCCc1cc(OC2CCN(CCCNC(=O)CCOC)CC2)c2ncccc2c1 [Example 82, N-(3-{4-[(6-butyl-8-quinolinyl)oxy]-1-piperidinyl}propyl)-3-(methyloxy) propanamide] | < 10 |  | > 316
CCCCc1cc(OC2CCN(CC(=O)NC(C)(C)C)CC2)c2ncccc2c1 [Example 12, 2-{4-[(6-butyl-8-quinolinyl)oxy]-1-piperidinyl}-N-(1,1-dimethylethyl) acetamide] | < 100 |  | > 3160
CCCCc1cc(O[C@@H]2CCN(CCC(=O)N3CCCCC3)C2)c2ncccc2c1 [Example 33, 6-butyl-8-({(3R)-1-[3-oxo-3-(1-piperidinyl)propyl]-3-pyrrolidinyl}oxy)quinoline] | < 10 |  | > 316
CCCCCCc1cc(OC2CCN(C[C@H]3CC[C@H](C(=O)N(CC)CC)CC3)CC2)c2ncccc2c1 [Example 53, trans-N,N-diethyl-4-({4-[(6-hexyl-8-quinolinyl)oxy]-1-piperidinyl}methyl) cyclohexane carboxamide] | < 100 |  | > 316
CCCCc1cc(OC2CCN(CCNC(=O)CCOC)CC2)c2ncccc2c1 [Example 80, N-(2-{4-[(6-butyl-8-quinolinyl)oxy]-1-piperidinyl}ethyl)-3-(methyloxy) propanamide] | < 10 |  | > 316
CCCCc1cc(OC2CCN(CCCCNC(=O)CC)CC2)c2ncccc2c1 [Example 64, N-(4-{4-[(6-Butyl-8-quinolinyl)oxy]-1-piperidinyl}butyl)propanamide] | < 10 |  | > 316
CCCCc1cc(OC2CCN(C[C@H]3CC[C@H](C(=O)Nc4ccc(C)cc4)CC3)CC2)c2ncccc2c1 [Example 59, trans-4-({4-[(6-butyl-8-quinolinyl)oxy]-1-piperidinyl}methyl)-N-(4-methylphenyl) cyclohexane carboxamide] | < 100 |  | > 316
CCCCc1cc(OC2CCN(C[C@H]3CC[C@H](C(=O)NCCC(C)C)CC3)CC2)c2ncccc2c1 [Example 61, trans-4-({4-[(6-butyl-8-quinolinyl)oxy]-1-piperidinyl}methyl)-N-(3-methylbutyl) cyclohexane carboxamide] | < 10 |  | > 316
CCCCc1cc(OC2CCN(C[C@H]3CC[C@H](C(=O)NCCCOC)CC3)CC2)c2ncccc2c1 [Example 47, trans-4-({4-[(6-butyl-8-quinolinyl)oxy]-1-piperidinyl}methyl)-N-[3-(methyloxy)propyl]cyclohexane carboxamide] | < 10 |  | > 316
